{"source": "patent EP1459757A1", "about": "“Immunomodulating polymers” (THE BRIGHAM AND WOMEN'S HOSPITAL, INC., priority 1999, dated 2004)", "key": {"B. fragilis NCTC 9343": {"system": "B. fragilis NCTC 9343", "experiment": "Rat model of intraabdominal sepsis, abscess formation after B. fragilis challenge", "assay_type": "in vivo", "description": "The rat model of intraabdominal sepsis used in this study has been described previously. […] Briefly, male Wistar or Lewis rats (Charles River Laboratories, Wilmington, MA) weighing between 180 and 200 g were housed separately and received chow (Ralston Purina, St. Louis, MO) and water ad libitum. Animals were anesthetized with a single intraperitoneal injection of 0.15 ml of Nembutal (50 mg/ml; Abbott Laboratories, North Chicago, IL), and their abdomens were shaved and swabbed with a tincture of iodine. An anterior midline incision (0.5-1.0 cm) was made through the abdominal wall and peritoneum, and a gelatin capsule containing 0.5 ml of inoculum was inserted into the pelvis. The inoculum contained either B. fragilis NCTC 9343 (10^8 cfu/animal), S. aureus PS 80 (10^7 cfu/animal), or purified test polysaccharide, mixed 1:1 with an adjuvant solution containing sterile rat cecal contents and 10% barium sulfate (w/v) as previously described. […] The incisions were closed with interrupted 3.0 silk sutures, and the animals were returned to the cages.\nSix days later animals were necropsied in a blinded fashion and examined for the formation of one or more intraabdominal abscesses by an observer blinded to the experimental groups.\nThis example addresses whether zwitterionic (K-D)n peptides could protect animals against abscess formation in vivo, using the abdominal sepsis model in Example 1.\nThe effect of the peptide repeating unit size on protection was examined. Animals were treated according to the regimen described above with a 50 µg/dose of each repeating unit size (Table 2)."}, "human T cells": {"system": "human T cells", "experiment": "T cell proliferation assay (3H-thymidine uptake)", "assay_type": "cell-based", "conditions": "20 µg/ml; 6 days post-incubation (Figure 6)", "method": "T cell proliferation assays were performed on cells obtained from human leukopacs (discarded white cells from anonymous platelet donors). Mononuclear cells were separated by ficoll-hypaque sedimentation to eliminate red cells and polymorphonuclear leukocytes. The mononuclear layer, which consisted of T cells, B cells, and mononuclear cells, was depleted of B cells and monocytes by passage over nylon wool column. A portion of these cells was saved prior to placement on nylon wool and were used as autologous feeder cells following irradiation with 6.4 kRads with a cesium source for 4.8 min. Nylon passed cells, which were greater than 98% CD3 positive (as determined by FACS analysis) were used as responder cells or further depleted with antibodies to CD4 (OKT4) or CD8 (OKT8) followed by negative selection with magnetic beads. Finberg, RW et al. J Immunol 149:2055 (1992); Haregewoin, A et al. Nature 340:309 (1989). […] Cells were washed extensively, harvested, and the amount of radioactive uptake counted by liquid scintillation. […] Data were expressed as the average of triplicate wells ± the standard error of cpm represented. […]\nFollowing the T cell proliferation assay of Example 2, K-D peptides (20 µg/ml) of varying size were assessed for their ability to stimulate T cell activation 6 days post-incubation. […]"}, "[1]": {"conditions": "Table 1 Experiment A, 50 µg subcutaneous at -24, 0, +24 h, B. fragilis 1 x 10^8 cfu/rat, six days later"}}, "data": [{"substance": "poly-L-lysine", "values": [{"measurement": "protection against abscess formation compared with saline-treated animals", "setting": "B. fragilis NCTC 9343; 50 µg/dose subcutaneous, B. fragilis challenge", "result": "did not protect against abscess formation"}, {"measurement": "Abscess formation (%)", "setting": "B. fragilis NCTC 9343; [1]", "result": 80, "unit": "%"}, {"measurement": "No. animals with abscess/total", "setting": "B. fragilis NCTC 9343; [1]", "result": "8/10"}, {"measurement": "T cell activation by K-D peptides of varying size", "setting": "human T cells", "result": "did not stimulate T cell proliferation"}]}]}
